Experimental data as given in PubChem BioAssay AID2060604 (Molecular Pharmacology Branch, DTP, NCI, 2025).
pIC50: −log10 of the molar value.

Tested on: 379773-124-R-J2-PDC complex spheroids, viability % test/control
Experiment: Anticancer human tumor 379773-124-R-J2-PDC patient-derived endometrial carcinoma cell line growth inhibition [CLK]
Details: for pIC50: curve of first compound; for viability, T/C: stronger effect = lower value
Description: A high-throughput screen of multi-cell type tumor spheroids was designed to identify active combinations of […] and targeted small molecules. Complex spheroids include a stromal component modeled by human endothelial cells (HUVEC) and fibroblasts modeled by human mesenchymal stem cells (MSCs). The concentration ranges selected for each drug and investigational agent were based upon clinically achievable concentrations if the clinical Cmax of the agent was known.
Compounds. The drugs and investigational agents: cirtuvivint (SM08502; NSC835563), CC-671 (NSC850746), vemurafenib (NSC761431), tapotoclax (NSC804041), sotorasib (NSC818433), adagrasib (NSC831453), MRTX-1133 (NSC836407), BAY2416964 (NSC825713), copanlisib (NSC816437), inavolisib (NSC800729), abemaciclib (NSC768073), osimertinib (NSC779217), entinostat (NSC756642), eltanexor (KPT-8602, NSC794443), venetoclax (NSC766270), ceralasertib (NSC777638), bortezomib (NSC756655), olaparib (NSC753686), talazoparib (NSC767125), alisertib (NSC759677), peposertib (NSC802822), gemcitabine (NSC613327), 5-fluorouracil (NSC19893), SN-38 (NSC673596), oxaliplatin (NSC266046), paclitaxel (NSC125973), and doxorubicin (NSC123127), were obtained from the National Cancer Institute (NCI) Developmental Therapeutics Program Chemical Repository. The FDA-approved anticancer drug set is available from the Developmental Therapeutics Program at https://dtp.cancer.gov/organization/dscb/obtaining/available plates.htm. […] The stock solutions were prepared in dimethyl sulfoxide (DMSO, Sigma-Aldrich, St. Louis, MO, cat. D2650), except for the platinum complexes which were prepared in saline (Quality Biological, Gaithersburg, MD, cat. 114-055-101), at 800-fold the tested concentration and stored at -70 degrees C prior to their use. All drugs and investigational agents were tested over a range starting from a high concentration at or near the clinical Cmax and decreasing in half-log increments. If the clinical Cmax for an agent had not been determined, the highest concentration tested was 10 microM.
Cell Culture. All cells were maintained in an incubator at 37 degrees C and 5% CO2 with 95% humidity. The PDC lines were cultured according to standard operating procedures established by the NCI PDMR. Briefly, all PDCs were thawed and cultured in Matrigel-coated flasks prepared with a working solution of 1X Ham's F-12 nutrient mix, without supplementation (Invitrogen, Waltham, MA, cat. 11765054), 100 U/mL penicillin-streptomycin (Invitrogen, cat. 15140122), and 2.5% Matrigel (Corning Inc., Corning, NY, cat. 354248) for the first three passages. The 947758-054-R-J2-PDC line was cultured in 6B/Colon 1A media, which includes advanced DMEM/F-12 (Thermo Fisher Scientific, cat. 12634028), 10 mM HEPES (Thermo Fisher Scientific, cat. 15630080), 1X GlutaMAX supplement (Thermo Fisher Scientific, cat. 35050061), 0.1 mg/mL primocin (InvivoGen, cat. ant-pm-2), 10% defined fetal bovine serum, heat inactivated (HyClone Laboratories Inc., cat. SH30070.03HI), 1.25 mM N-Acetyl-L-cysteine (Sigma-Aldrich, cat. A9165), 10 mM nicotinamide (Sigma-Aldrich, cat. N0636), 1X B-27 supplement (Thermo Fisher Scientific, cat. 17504044), 1X N-2 supplement (Thermo Fisher Scientific, cat. 17502048), and 10 microM Y-27632 dihydrochloride (Tocris Bioscience, cat. 1254). The 876862-298-R-J1-PDC was cultured in 6E media, which includes all 6B/Colon 1A media components plus 50% L-WRN conditioned media (ATCC, cat. CRL-3276), 50 ng/mL recombinant human EGF recombinant protein (hEGF; Thermo Fisher Scientific, cat. PHG0311), 10 ng/mL recombinant human fibroblast growth factor 10 (hGFG-10; PeproTech, cat. 100-26), 1 ng/mL recombinant human fibroblast growth factor 2 (hFGF-2; PeproTech, cat. 100-18B), and 1 µM prostaglandin E2 (PGE2; Tocris, cat. 2296). The 227483-062-R1-J1-PDC line was cultured in Panc media, containing all 6E components except hFGF-2, with the addition of 500 nM SB-431542 (Selleckchem, cat. S1067) and 10 nM gastrin (Tocris, cat. 3006). […]

[1] = second compound 0.0316 µM, first compound 0.0316 µM
[2] = second compound 0.0316 µM, first compound 0.1 µM
[3] = second compound 0.0316 µM, first compound 0.316 µM
[4] = second compound 0.0316 µM, first compound 1 µM
[5] = second compound 0.0316 µM, first compound 3.16 µM
[6] = second compound 0.0316 µM, first compound 10 µM
[7] = second compound 0.1 µM, first compound 0.0316 µM
[8] = second compound 0.1 µM, first compound 0.1 µM
[9] = second compound 0.1 µM, first compound 0.316 µM
[10] = second compound 0.1 µM, first compound 1 µM
[11] = second compound 0.1 µM, first compound 3.16 µM
[12] = second compound 0.1 µM, first compound 10 µM
[13] = second compound 0.316 µM, first compound 0.0316 µM
[14] = second compound 0.316 µM, first compound 0.1 µM
[15] = second compound 0.316 µM, first compound 0.316 µM
[16] = second compound 0.316 µM, first compound 1 µM
[17] = second compound 0.316 µM, first compound 3.16 µM
[18] = second compound 0.316 µM, first compound 10 µM
[19] = second compound 1 µM, first compound 0.0316 µM
[20] = second compound 1 µM, first compound 0.1 µM
[21] = second compound 1 µM, first compound 0.316 µM
[22] = second compound 1 µM, first compound 1 µM
[23] = second compound 1 µM, first compound 3.16 µM
[24] = second compound 1 µM, first compound 10 µM
[25] = second compound 3.16 µM, first compound 0.0316 µM
[26] = second compound 3.16 µM, first compound 0.1 µM
[27] = second compound 3.16 µM, first compound 0.316 µM
[28] = second compound 3.16 µM, first compound 1 µM
[29] = second compound 3.16 µM, first compound 3.16 µM
[30] = second compound 3.16 µM, first compound 10 µM
[31] = second compound 10 µM, first compound 0.0316 µM
[32] = second compound 10 µM, first compound 0.1 µM
[33] = second compound 10 µM, first compound 0.316 µM
[34] = second compound 10 µM, first compound 1 µM
[35] = second compound 10 µM, first compound 3.16 µM
[36] = second compound 10 µM, first compound 10 µM
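Further: compound exposure lasted seven days before the viability readout.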
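Wherever viability, T/C is given: 100% = DMSO vehicle control wells.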

`CCCS(=O)(=O)Nc1ccc(F)c(C(=O)c2c[nH]c3ncc(-c4ccc(Cl)cc4)cc23)c1F` + CN1CCN(c2cc(C(=O)Nc3cc4cc(-c5cnn(C)c5)ccc4cn3)ccn2)CC1 was tested, and the pIC50 (second compound 0.0316 µM) was < 5.00, the pIC50 (second compound 0.1 µM) was < 5.00 and the pIC50 (second compound 0.316 µM) was > 7.50. For the same molecule, the pIC50 (second compound 1 µM) was > 7.50, the pIC50 (second compound 3.16 µM) was > 7.50 and the pIC50 (second compound 10 µM) was > 7.50. The viability, T/C [1] was 80.5%, the viability, T/C [2] was 86.1% and the viability, T/C [3] was 94.8%. It also gave a viability, T/C [4] of 90.1%, a viability, T/C [5] of 82.4% and a viability, T/C [6] of 58.7%. It also gave a viability, T/C [7] of 83.6%, a viability, T/C [8] of 65.8% and a viability, T/C [9] of 75.8%. The viability, T/C [10] was 70.2%, the viability, T/C [11] was 68.9% and the viability, T/C [12] was 54.8%. It also gave a viability, T/C [13] of 26.6%, a viability, T/C [14] of 27.3% and a viability, T/C [15] of 30.2%. For the same molecule, the viability, T/C [16] was 27.2%, the viability, T/C [17] was 29.8% and the viability, T/C [18] was 18.3%. It also gave a viability, T/C [19] of 0.16%, a viability, T/C [20] of 0.29% and a viability, T/C [21] of 0.14%. For the same molecule, the viability, T/C [22] was 0.13%, the viability, T/C [23] was 1.03% and the viability, T/C [24] was 0.09%. The viability, T/C [25] was 0.1%, the viability, T/C [26] was 0.48% and the viability, T/C [27] was 0.12%. The viability, T/C [28] was 0.91%, the viability, T/C [29] was 0.09% and the viability, T/C [30] was 0.51%. For the same molecule, the viability, T/C [31] was 0.14%, the viability, T/C [32] was 1.01% and the viability, T/C [33] was 0.7%. It also gave a viability, T/C [34] of 2.8%, a viability, T/C [35] of 0.19% and a viability, T/C [36] of 0.29%.

With `COC1C=CCC(C)C(C)S(=O)(=O)NC(=O)c2ccc3c(c2)N(CC2CCC21)CC1(CCCc2cc(Cl)ccc21)CO3` (centres undefined) + CN1CCN(c2cc(C(=O)Nc3cc4cc(-c5cnn(C)c5)ccc4cn3)ccn2)CC1 the pIC50 (second compound 0.0316 µM) was 5.30, the pIC50 (second compound 0.1 µM) was 5.32 and the pIC50 (second compound 0.316 µM) was > 7.50. For the same molecule, the pIC50 (second compound 1 µM) was > 7.50, the pIC50 (second compound 3.16 µM) was > 7.50 and the pIC50 (second compound 10 µM) was > 7.50. It also gave a viability, T/C [1] of 87.2%, a viability, T/C [2] of 97.5% and a viability, T/C [3] of 74.6%. For the same molecule, the viability, T/C [4] was 86%, the viability, T/C [5] was 79.7% and the viability, T/C [6] was 4.02%. For the same molecule, the viability, T/C [7] was 77.2%, the viability, T/C [8] was 73.5% and the viability, T/C [9] was 78.7%. The viability, T/C [10] was 78.2%, the viability, T/C [11] was 76% and the viability, T/C [12] was 2.54%. The viability, T/C [13] was 24.8%, the viability, T/C [14] was 29.9% and the viability, T/C [15] was 30.9%. It also gave a viability, T/C [16] of 26.5%, a viability, T/C [17] of 29.6% and a viability, T/C [18] of 1.06%. The viability, T/C [19] was 0.39%, the viability, T/C [20] was 0.17% and the viability, T/C [21] was 0.35%. It also gave a viability, T/C [22] of 0.18%, a viability, T/C [23] of 0.65% and a viability, T/C [24] of 0.11%. The viability, T/C [25] was 0.12%, the viability, T/C [26] was 0.14% and the viability, T/C [27] was 1.19%. For the same molecule, the viability, T/C [28] was 0.82%, the viability, T/C [29] was 0.11% and the viability, T/C [30] was 0.1%. For the same molecule, the viability, T/C [31] was 0.48%, the viability, T/C [32] was 0.72% and the viability, T/C [33] was 0.18%. For the same molecule, the viability, T/C [34] was 1.21%, the viability, T/C [35] was 0.37% and the viability, T/C [36] was 0.23%.
